# Data from the supplement of paper PMC11451515.
# System: NOMO1
# Assay: cell viability relative to DMSO control; higher = less cytotoxic
# Settings: 48 h
# Summary of the method: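 Viability values are per-plate percentages of DMSO wells, with background from cell-free wells. Library compounds in DMSO were pin-dosed, in an 11-point threefold series from 47 μM to 0.79 nM, onto NOMO1 or SEM (500 cells/well) or P12-Ichikawa (1000 cells/well) leukemia cells in 1536-well plates (5 μl). Those cells had been adapted for at least four passages in each medium, and CellTiter-Glo One luminescence was read after 48 h at 37°C.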
# [1] = HPLM + 10% dialyzed FBS, 0.000781 µM
# [2] = HPLM + 10% dialyzed FBS, 0.00234 µM
# [3] = HPLM + 10% dialyzed FBS, 0.00702 µM
# [4] = HPLM + 10% dialyzed FBS, 0.0211 µM
# [5] = HPLM + 10% dialyzed FBS, 0.0632 µM
# [6] = HPLM + 10% dialyzed FBS, 0.19 µM
# [7] = HPLM + 10% dialyzed FBS, 0.569 µM
# [8] = HPLM + 10% dialyzed FBS, 1.71 µM
# [9] = HPLM + 10% dialyzed FBS, 5.12 µM
# [10] = HPLM + 10% dialyzed FBS, 15.4 µM
# [11] = HPLM + 10% dialyzed FBS, 46.1 µM
# [12] = RPMI 5 mM glucose + 10% FBS, 0.000781 µM
# [13] = RPMI 5 mM glucose + 10% FBS, 0.00234 µM
# [14] = RPMI 5 mM glucose + 10% FBS, 0.00702 µM
# [15] = RPMI 5 mM glucose + 10% FBS, 0.0211 µM
# [16] = RPMI 5 mM glucose + 10% FBS, 0.0632 µM
# [17] = RPMI 5 mM glucose + 10% FBS, 0.19 µM
# [18] = RPMI 5 mM glucose + 10% FBS, 0.569 µM
# [19] = RPMI 5 mM glucose + 10% FBS, 1.71 µM
# [20] = RPMI 5 mM glucose + 10% FBS, 5.12 µM
# [21] = RPMI 5 mM glucose + 10% FBS, 15.4 µM
# [22] = RPMI 5 mM glucose + 10% FBS, 46.1 µM
# [23] = RPMI 5 mM glucose + 10% dialyzed FBS, 0.000781 µM
# [24] = RPMI 5 mM glucose + 10% dialyzed FBS, 0.00234 µM
# [25] = RPMI 5 mM glucose + 10% dialyzed FBS, 0.00702 µM
# [26] = RPMI 5 mM glucose + 10% dialyzed FBS, 0.0211 µM
# [27] = RPMI 5 mM glucose + 10% dialyzed FBS, 0.0632 µM
# [28] = RPMI 5 mM glucose + 10% dialyzed FBS, 0.19 µM
# [29] = RPMI 5 mM glucose + 10% dialyzed FBS, 0.569 µM
# [30] = RPMI 5 mM glucose + 10% dialyzed FBS, 1.71 µM
# [31] = RPMI 5 mM glucose + 10% dialyzed FBS, 5.12 µM
# [32] = RPMI 5 mM glucose + 10% dialyzed FBS, 15.4 µM
# [33] = RPMI 5 mM glucose + 10% dialyzed FBS, 46.1 µM
SMILES,cell viability [1] [%],cell viability [2] [%],cell viability [3] [%],cell viability [4] [%],cell viability [5] [%],cell viability [6] [%],cell viability [7] [%],cell viability [8] [%],cell viability [9] [%],cell viability [10] [%],cell viability [11] [%],cell viability [12] [%],cell viability [13] [%],cell viability [14] [%],cell viability [15] [%],cell viability [16] [%],cell viability [17] [%],cell viability [18] [%],cell viability [19] [%],cell viability [20] [%],cell viability [21] [%],cell viability [22] [%],cell viability [23] [%],cell viability [24] [%],cell viability [25] [%],cell viability [26] [%],cell viability [27] [%],cell viability [28] [%],cell viability [29] [%],cell viability [30] [%],cell viability [31] [%],cell viability [32] [%],cell viability [33] [%]
CCC(CC)[C@H](NC(C)=O)[C@@H]1[C@H](O)[C@@H](C(=O)O)C[C@H]1NC(=N)N,67.7,72,78,85,80.9,96.4,90.3,90.8,87.7,82.8,94.9,81.8,85,88.7,85.8,89,84.3,90,87.1,84.1,79.5,81.1,80.4,79.7,82.6,80.4,93,83,90.2,81.7,78.2,78.3,83.1
CC1OC(OC/2=C(/OC3=C(C(=CC(=C3)O)O)C2=O)C4=CC=C(O)C=C4)C(O)C(OC(C)=O)C1OC(C)=O (stereo not drawn),119,109,137,130,111,110,112,112,120,101,78.9,120,116,110,100,117,111,96.8,96.9,103,94.3,68.9,96.7,108,109,111,112,114,118,104,111,99.2,77.2
COc1cc(N2CCC(N3CCN(C)CC3)CC2)ccc1Nc1ncnc(Nc2ccccc2[S+](=O)([O-])C(C)C)n1,92.5,92.9,95.9,111,65,123,144,117,102,54.4,31,110,103,113,119,88,117,115,108,110,62.5,43.2,87.6,87.7,91.9,89.3,69.1,107,123,114,109,58.3,34.5
N/C(=N\C(=O)c1nc(Cl)c(N)nc1N)NCc1ccccc1,81,99.5,90.7,118,108,108,109,109,97.6,76.2,36.9,80.5,92.8,83.7,88.3,93.5,89,99,87.8,92.8,72.4,28.5,83.1,97,96.2,90.8,104,100,107,111,87.4,84.2,49.1
CN1[C@@H]2CC(O)C[C@H]1[C@@H]1O[C@@H]12 (stereo partly drawn),–,–,–,–,–,–,–,–,–,–,–,111,125,121,121,113,118,103,113,121,111,6.78,–,–,–,–,–,–,–,–,–,–,–
CC1(C)CC(=O)c2c(C(F)(F)F)nn(-c3ccc(C(N)=O)c(NC4CCC(OC(=O)CN)CC4)c3)c2C1 (stereo not drawn),94.8,92.8,104,99,102,84.5,27.3,17.8,13.5,17.5,15.7,92.5,110,92.4,92.9,84.2,88.9,20.6,11.2,9.75,9.88,11.1,94.4,103,109,93.2,89.2,76,21.3,15.8,13.4,14.1,15.9
CN(C)c1ccc(C(=O)NCCCCCCC(=O)NO)cc1,106,103,104,94.9,106,83.5,112,89,7.42,3.13,3.88,91.1,90.6,103,92.3,95.8,99.8,91.4,92,6.22,2.81,2.37,102,103,124,106,112,105,106,89,7.05,3.1,3.05
COc1ccc(Cn2ccc3ccc(C(=O)NO)cc32)cc1,–,–,–,–,–,–,–,–,–,–,–,107,121,115,128,124,123,130,137,124,130,128,–,–,–,–,–,–,–,–,–,–,–
Cc1ccc(F)c(NC(=O)Nc2ccc(-c3cccc4[nH]nc(N)c34)cc2)c1,91.4,111,118,125,115,111,110,110,117,93.8,86.6,99.6,125,121,108,123,118,113,115,118,114,105,106,112,108,123,116,105,120,117,104,111,87.8
